# Measured values reported in US12448399B2, “Cereblon-based KRAS degrading PROTACs and uses related thereto” (Arvinas Operations, Inc., priority 2023, dated 2025).
# Target: T1, KRas-G12D (Homo sapiens, UniProt P01116, G12D)
# T1 construct: insert the HiBiT tag onto the N-terminus of one or more of the endogenous KRas alleles; host or cells: AsPC-1 HiBiT-KRasG12D knock-in clone (one tagged allele, two untagged KRasG12D alleles)
# Assay: HiBiT Degradation Assay (G12D), AsPC-1 HiBiT-KRasG12D cells, 24 hr
# Assay type: cell-based
# Conditions: for DC50: AsPC-1 cells; for Dmax: ASPC1, AsPC-1 cells, maximum degradation observed
# Method in brief: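 Degradation was read after 24 hr compound exposure (0.5% DMSO, 37° C) by Nano-Glo HiBiT lytic luminescence in AsPC-1 cells carrying a HiBiT tag on one of three KRasG12D alleles. Signal relative to DMSO gave DC50 and Dmax by 4-parameter fit; alamar blue fluorescence monitored cytotoxicity.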
# T1 sequence (P01116 1-188 isoform P01116-2 G12D): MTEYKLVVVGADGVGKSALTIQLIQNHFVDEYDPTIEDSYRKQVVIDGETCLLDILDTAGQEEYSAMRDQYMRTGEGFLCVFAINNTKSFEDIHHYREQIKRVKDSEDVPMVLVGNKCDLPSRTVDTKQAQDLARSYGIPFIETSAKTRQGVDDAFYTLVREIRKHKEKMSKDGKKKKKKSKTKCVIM
smiles,measurement,value
"CCc1c(F)ccc2cc(O)cc(-c3ncc4c(N5CC6CCC(C5)N6)nc(OCCN5CCC(CC6CCN(CC7CCN(c8cccc9c8CN(C8CCC(=O)NC8=O)C9=O)CC7)CC6)CC5)nc4c3F)c12 (centres unmarked) [Compound 137, 3-{4-[4-({4-[(1-{2-[(4-{3,8-diazabicyclo[3.2.1]octan-3-yl}-7-(8-ethyl-7-fluoro-3-hydroxynaphthalen-1-yl)-8-fluoropyrido[4,3-d]pyrimidin-2-yl)oxy]ethyl}piperidin-4-yl)methyl]piperidin-1-yl}methyl)piperidin-1-yl]-1-oxo-2,3-dihydro-1H-isoindol-2-yl}piperidine-2,6-dione]",DC50,< 5.1 µM
C#Cc1c(F)ccc2cc(O)cc(-c3ncc4c(N5CC6CCC(C5)N6)nc(OCCN5CCC(CC6CCN(CC7CCN(c8ccc9c(c8)CN(C8CCC(=O)NC8=O)C9=O)CC7)CC6)CC5)nc4c3F)c12 (centres unmarked) [Compound 138],Dmax,> 70%
same,DC50,< 5.1 µM
"CCc1cccc2cc(O)cc(-c3ncc4c(N5CC6CCC(C5)N6)nc(OC[C@@H]5C[C@@H](OC6CCN(CC7CCN(c8cccc9c8CN(C8CCC(=O)NC8=O)C9=O)CC7)CC6)CN5C)nc4c3F)c12 (stereo partly drawn) [Compound 139, 3-(4-{4-[(4-{[(3R,5S)-5-{[(4-{3,8-diazabicyclo[3.2.1]octan-3-yl}-7-(8-ethyl-3-hydroxynaphthalen-1-yl)-8-fluoropyrido[4,3-d]pyrimidin-2-yl)oxy]methyl}-1-methylpyrrolidin-3-yl]oxy}piperidin-1-yl)methyl]piperidin-1-yl}-1-oxo-2,3-dihydro-1H-isoindol-2-yl)piperidine-2,6-dione]",Dmax,> 70%
same,DC50,< 5.1 µM
"C#Cc1c(F)ccc2cc(O)cc(-c3ncc4c(N5CC6CCC(C5)N6)nc(OCCN5CCC(CN6CC7(CCN(c8cccc9c8CN(C8CCC(=O)NC8=O)C9=O)CC7)C6)CC5)nc4c3F)c12 (centres unmarked) [Compound 140, 3-(4-{2-[(1-{2-[(4-{3,8-diazabicyclo[3.2.1]octan-3-yl}-7-(8-ethynyl-7-fluoro-3-hydroxynaphthalen-1-yl)-8-fluoropyrido[4,3-d]pyrimidin-2-yl)oxy]ethyl}piperidin-4-yl)methyl]-2,7-diazaspiro[3.5]nonan-7-yl}-1-oxo-2,3-dihydro-1H-isoindol-2-yl)piperidine-2,6-dione]",DC50,0.25 to 1 µM
CCc1cccc2cc(O)cc(-c3ncc4c(N5CC6CCC(C5)N6)nc(OCCN5CCC6(CC5)CN(c5cccc7c5CN(C5CCC(=O)NC5=O)C7=O)C6)nc4c3F)c12 (centres unmarked) [Compound 141],DC50,> 1 µM
O=C1CCC(N2Cc3c(ccc(N4CCC(CN5CCC(CC6CCN(CCOc7nc(N8CC9CCC(C8)N9)c8cnc(-c9cc(O)cc(Cl)c9C9CC9)c(F)c8n7)CC6)CC5)CC4)c3F)C2=O)C(=O)N1 (centres unmarked) [Compound 142],Dmax,> 70%
same,DC50,< 5.1 µM
C#Cc1c(F)ccc2cccc(-c3ncc4c(N5CC6CCC(C5)N6)nc(OC[C@]56CCCN5[C@H](CN5CCN(CC7CCN(c8ccc9c(c8)CN(C8CCC(=O)NC8=O)C9=O)CC7)CC5)CC6)nc4c3F)c12 (some centres unmarked) [Compound 143],DC50,< 5.1 µM
C#Cc1c(F)ccc2cccc(-c3ncc4c(N5CC6CCC(C5)N6)nc(OC[C@@H]5C[C@@H](OC6CCN(CC7CCN(c8ccc9c(c8)CN(C8CCC(=O)NC8=O)C9=O)CC7)CC6)CN5C)nc4c3F)c12 (some centres unmarked) [Compound 144],DC50,< 5.1 µM
C#Cc1c(F)ccc2cccc(-c3ncc4c(N5CC6CCC(C5)N6)nc(OC[C@]56CCCN5[C@H](CN5CCN(c7ccc8c(c7)CN(C7CCC(=O)NC7=O)C8=O)CC5)CC6)nc4c3F)c12 (some centres unmarked) [Compound 145],Dmax,> 70%
same,DC50,0.1 to 5.25 µM
C#Cc1c(F)ccc2cccc(-c3ncc4c(N5CC6CCC(C5)N6)nc(OC[C@@]56CCCN5[C@H](CN5CCN(c7ccc8c(c7)CN(C7CCC(=O)NC7=O)C8=O)CC5)CC6)nc4c3F)c12 (some centres unmarked) [Compound 146],DC50,0.25 to 1 µM
C#Cc1c(F)ccc2cccc(-c3ncc4c(N5CC6CCC(C5)N6)nc(OC[C@@]56CCCN5[C@H](CN5CCN(CC7CCN(c8ccc9c(c8)CN(C8CCC(=O)NC8=O)C9=O)CC7)CC5)CC6)nc4c3F)c12 (some centres unmarked) [Compound 147],Dmax,> 70%
same,DC50,< 5.1 µM
"C#Cc1c(F)ccc2cc(O)cc(-c3ncc4c(N5CC6CCC(C5)N6)nc(OCCN5CCC(CN6CCN(CC7CCN(c8cc(C)c9c(c8F)CN(C8CCC(=O)NC8=O)C9=O)CC7)CC6)CC5)nc4c3F)c12 (centres unmarked) [Compound 148, 3-{5-[4-({4-[(1-{2-[(4-{3,8-diazabicyclo[3.2.1]octan-3-yl}-7-(8-ethynyl-7-fluoro-3-hydroxynaphthalen-1-yl)-8-fluoropyrido[4,3-d]pyrimidin-2-yl)oxy]ethyl}piperidin-4-yl)methyl]piperazin-1-yl}methyl)piperidin-1-yl]-4-fluoro-7-methyl-1-oxo-2,3-dihydro-1H-isoindol-2-yl}piperidine-2,6-dione]",Dmax,> 70%
same,DC50,< 5.1 µM
"C#Cc1c(F)ccc2cc(O)cc(-c3ncc4c(N5CC6CCC(C5)N6)nc(OCCN5CCC(CC6CCN(CC7CCN(c8cc(C)c9c(c8F)CN(C8CCC(=O)NC8=O)C9=O)CC7)CC6)CC5)nc4c3F)c12 (centres unmarked) [Compound 149, 3-{5-[4-({4-[(1-{2-[(4-{3,8-diazabicyclo[3.2.1]octan-3-yl}-7-(8-ethynyl-7-fluoro-3-hydroxynaphthalen-1-yl)-8-fluoropyrido[4,3-d]pyrimidin-2-yl)oxy]ethyl}piperidin-4-yl)methyl]piperidin-1-yl}methyl)piperidin-1-yl]-4-fluoro-7-methyl-1-oxo-2,3-dihydro-1H-isoindol-2-yl}piperidine-2,6-dione]",Dmax,> 70%
same,DC50,< 5.1 µM
C#Cc1c(F)ccc2cc(O)cc(-c3ncc4c(N5CC6CCC(C5)N6)nc(OCCN5CCC6(CC5)CN(CC5CCN(c7cc(C)c8c(c7F)CN(C7CCC(=O)NC7=O)C8=O)CC5)C6)nc4c3F)c12 (centres unmarked) [Compound 150],DC50,< 5.1 µM
"C#Cc1c(F)ccc2cc(O)cc(-c3ncc4c(N5CC6CCC(C5)N6)nc(OC[C@@H]5C[C@@H](OC6CCN(CC7CCN(c8cc(C)c9c(c8F)CN(C8CCC(=O)NC8=O)C9=O)CC7)CC6)CN5C)nc4c3F)c12 (stereo partly drawn) [Compound 151, 3-(5-{4-[(4-{[(3R,5S)-5-{[(4-{3,8-diazabicyclo[3.2.1]octan-3-yl}-7-(8-ethynyl-7-fluoro-3-hydroxynaphthalen-1-yl)-8-fluoropyrido[4,3-d]pyrimidin-2-yl)oxy]methyl}-1-methylpyrrolidin-3-yl]oxy}piperidin-1-yl)methyl]piperidin-1-yl}-4-fluoro-7-methyl-1-oxo-2,3-dihydro-1H-isoindol-2-yl)piperidine-2,6-dione]",Dmax,> 70%
same,DC50,< 5.1 µM
C#Cc1c(F)ccc2cc(O)cc(-c3ccc4c(N5CC6CCC(C5)N6)nc(OCCN5CCC(CC6CCN(CC7CCN(c8ccc9c(c8F)CN(C8CCC(=O)NC8=O)C9=O)CC7)CC6)CC5)nc4c3F)c12 (centres unmarked) [Compound 152],DC50,< 5.1 µM
"C#Cc1c(F)ccc2cc(O)cc(-c3ncc4c(N5CC6CCC(C5)N6)nc(OCCN5CCC6(CC5)CCN(CC5CCN(c7cc(C)c8c(c7F)CN(C7CCC(=O)NC7=O)C8=O)CC5)CC6)nc4c3F)c12 (centres unmarked) [Compound 153, 3-(5-{4-[(9-{2-[(4-{3,8-diazabicyclo[3.2.1]octan-3-yl}-7-(8-ethynyl-7-fluoro-3-hydroxynaphthalen-1-yl)-8-fluoropyrido[4,3-d]pyrimidin-2-yl)oxy]ethyl}-3,9-diazaspiro[5.5]undecan-3-yl)methyl]piperidin-1-yl}-4-fluoro-7-methyl-1-oxo-2,3-dihydro-1H-isoindol-2-yl)piperidine-2,6-dione]",Dmax,> 70%
same,DC50,< 5.1 µM
